First the molecules themselves.
B1: Holotricin 3: peptide, source Holotrichia diomphalia (peptide, listed as Holotrichia diomphalia)
chain: YGPGDGHGGGHGGGHGGGHGNGQGGGHGHGPGGGFGGGHGGGHGGGGRGGGGSGGGGSPGHGAGGGYPGGHGGGHHGGYQTHGY
modifications: Holotricin 3
notes: peptide, source Holotrichia diomphalia
B2: NK-Lysin: peptide, source Sus scrofa (peptide, listed as Amaranthus caudatus)
chain: GYFCESCRKIIQKLEDMVGPQPNEDTVTQAASQVCDKLKILRGLCKKIMRSFLRRISWDILTGKKPQAICVDIKICKE

No end group written: not given here.

One test deals with Bacillus atrophaeus (B. atrophaeus). It is filed as cell-based.
Settings: not given
For “FRLKFHI [ProteCoat, amino acid polymer consisting essentially of 7 amino acids]”, the “% Growth Inhibition, ProteCoat alone” value is listed as 0%.

For the next test, the system named is Fusarium oxysporum f. sp. lycopersici (F. oxysporum). The class given is cell-based.
Settings: not given
Consider “FRLKFHI [ProteCoat, amino acid polymer consisting essentially of 7 amino acids]”, for which the “% Growth Inhibition, ProteCoat alone” value is 44%.

For a further test, the system named is Gram+ & Gram− bacteria, fungi, virus, mammalian/cancer cells. The settings on record: cited from earlier work.
Take “FRLKFHI [ProteCoat, amino acid polymer consisting essentially of 7 amino acids]”: the Activity result is on record as “Fungi”.

With “Histatin 1: peptide, source Crab eating macaque (DSHEERHHGRHGHHKYGRKFHEKHHSHRGYRSNYLYDN; Histatin 1; listed as Macaca fascicularis)”, the Activity result is given as “Gram+ & Gram−, Fungi”. For “Hexapeptide: peptide, source Bovine (RRWQWR; hexapeptide; listed as Bos taurus)”, the Activity entry is “Gram+ & Gram−, Virus, Fungi,”. Consider “MUC7 20- Mer: peptide, source Human (LAHQKPFIRKSYKCLHKRCR; MUC7 20-Mer; listed as Homo sapiens)”, for which the Activity entry is on record as “Gram+ & Gram−, Fungi”. Turning to “SEQ ID No. 177: synthetic antifungal peptide, Table 1 (GYFSYPHGNLF; listed as Glomerella cingulata)”, the Activity result is recorded as “Fungi”. Regarding “SEQ ID No. 190: synthetic antifungal peptide, Table 1 (WHWLQLKPGQPMY; listed as Saccharomyces cerevisiae)”, the Activity entry is “Fungi”. As for “Sativum defensin 1 (psd1): peptide, source Seed of Pea (KTCEHLADTYRGVCFTNASCDDHCKNKAHLISGTCHNWKCFCTQNC; Seed of pea defensin 1 (psd1); listed as Pisum sativum)”, the Activity result was “Fungi”.

Take “AFP1: peptide, source Turnip (QKLCERPSGTWSGVCGNNNACKNQCIN; AFP1; listed as Brassica rapa)”: the Activity entry is listed as “Fungi”. Turning to “SEQ ID No. 43: synthetic antifungal peptide, Table 1 (SFKLRF)”, the Activity entry was “Fungi”.

For “SEQ ID No. 196: synthetic antifungal peptide, Table 1 (WCTWKGQPCW; listed as Fusarium graminearum)”, the Activity entry is listed as “Fungi”. With “Termicin: peptide, source Pseudacanthotermes spiniger (ACNFQSCWATCQAQHSIYFRRAFCDRSQCKCVFVRG; Pseudacanthotermes spiniger; Termicin)”, the Activity result is on record as “Gram+, Fungi”. As to “BMAP-27: peptide, source Bovine (GRFKRFRKKFKKLFKKLSPVIPLLHLG; BMAP-27; listed as Bos taurus)”, the Activity result is listed as “Gram+ & Gram−, Fungi”. For “SEQ ID No. 191: synthetic antifungal peptide, Table 1 (WCLFHGEGCW; listed as Cryphonectria parasitica)”, the Activity result is listed as “Fungi”. For the molecule “SEQ ID No. 35: synthetic antifungal peptide, Table 1 (IFKLRF)”, the Activity result is given as “Fungi”.

Take “SEQ ID No. 30: synthetic antifungal peptide, Table 1 (WLRF)”: the Activity result is on record as “Fungi”.

“SEQ ID No. 45: synthetic antifungal peptide, Table 1 (TFKLRF)”: the Activity entry is recorded as “Fungi”. Take “Neutrophil defensin 2 (RMAD-2): peptide, source Rhesus macaque (ACYCRIPACLAGERRYGTCFYMGRVWAFCC; neutrophil defensin 2 (RMAD-2); listed as Macaca mulatta)”: the Activity entry is “Gram+ & Gram−, Fungi”. With “Protegrin 2: peptide, source Pig (RGGRLCYCRRRFCICV; Protegrin 2; listed as Sus scrofa)”, the Activity result was “Gram+ & Gram−, Virus, Fungi”. For the molecule “Histatin 3: peptide, source Human (DSHAKRHHGYKRKFHEKHHSHRGYRSNYLYDN; Histatin 3; listed as Homo sapiens)”, the Activity entry is given as “Gram+ & Gram−, Fungi”. As to “Histatin 8: antimicrobial peptide, Table 1 (KFHEKHHSHRGY; Histatin 8)”, the Activity result is reported as “Gram+ & Gram−, Fungi”.

For “SEQ ID No. 34: synthetic antifungal peptide, Table 1 (HFKLRF)”, the Activity result is “Fungi”.

Regarding “SEQ ID No. 179: synthetic antifungal peptide, Table 1 (WHWLSFSKGQPMY; listed as Saccharomyces kluyveri)”, the Activity result is “Fungi”. In the case of “SEQ ID No. 186: synthetic antifungal peptide, Table 1 (MPSTAASTRVPQTTMNFNGYCVVM; listed as Neurospora crassa)”, the Activity entry was “Fungi”. With B1, the Activity result is given as “Fungi”.

For B2, the Activity result is listed as “Gram+ & Gram−, Fungi”.

Staying with this test, now noted: classes of organisms/cells the peptide is active against; cited from earlier work.
Turning to “Tricholongin: peptide, source Trichoderma longibrachiatum (AGFAAQAAASLAPVAAQQL; Tricholongin; listed as Trichoderma longibrachiatum)”, the Activity result is recorded as “Gram+ & Gram−, Fungi”. As to “Dhvar4: peptide, source Synthesis (KRLFKKLLFSLRKY; Synthesis dhvar4)”, the Activity result was “Gram+ & Gram−, Fungi”.

The test system of another test is Fusarium oxysporum f. sp. lycopersici.
Settings: not given
“FRLKFHI [antimicrobial peptidic agent-7]”: the “growth at the lowest peptide concentration tested” value is listed as “clear retardation of growth”.

The same test, now with this note: 48 h, 0.78 mg/ml.
In the case of “FRLKFHI [antimicrobial peptidic agent-7]”, the “inhibition at the lowest peptide concentration tested” value is listed as “less than 10%”.

The values above are taken from patent publication US8618066B1 (priority 2003, dated 2013).
